In brackets after ≈: the same amount, converted by molar mass. Positions of bridges follow the written chain, without caps; N, C: chain ends. Non-standard residues stand in square brackets, D forms with d. Residues, ends and D or L forms follow the SMILES beside them. *: point of attachment. Phenylacetyl(3,4-Cl2) = O=C(Cc1ccc(Cl)c(Cl)c1)*; Benzoyl(4-CF3) = O=C(c1ccc(C(F)(F)F)cc1)*; Octanoyl = CCCCCCCC(=O)*; Dab = NCC[C@H](N)C(=O)O; Abu = CC[C@H](N)C(=O)O; Dap = NC[C@H](N)C(=O)O; Hexanoyl = CCCCCC(=O)*; Aib = CC(C)(N)C(=O)O
Experiments:
Pseudomonas aeruginosa = system: Pseudomonas aeruginosa
Outline: (§1)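 Using polymyxin B sulphate as comparator control, the trifluoroacetate-salt lipopeptides were assayed in CAMHB by broth microdilution to CLSI M100-S18, and MICs recorded.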

Enterobacter cloacae = system: Enterobacter cloacae
Outline: as §1

Acinetobacter baumannii = system: Acinetobacter baumannii
Outline: as §1

SMILES	Minimum inhibitory concentration, Pa ATCC 27853 (Pseudomonas aeruginosa) [µg/mL]	Minimum inhibitory concentration, Pa FADDI-PA022 (Pseudomonas aeruginosa) [µg/mL]	Minimum inhibitory concentration, Pa FADDI-PA025 (Pseudomonas aeruginosa) [µg/mL]	Minimum inhibitory concentration, Ec FADDI-EC001 (Enterobacter cloacae) [µg/mL]	Minimum inhibitory concentration, Ec FADDI-EC003 (Enterobacter cloacae) [µg/mL]	Minimum inhibitory concentration, Ec FADDI-EC006 (Enterobacter cloacae) [µg/mL]	Minimum inhibitory concentration, Ab A ATCC 17978 (Acinetobacter baumannii) [µg/mL]	Minimum inhibitory concentration, Ab ATCC 19606 (Acinetobacter baumannii) [µg/mL]	Minimum inhibitory concentration, Ab FADDI-AB034 (Acinetobacter baumannii) [µg/mL]
CC[C@@H]1NC(=O)[C@@H](CC(C)C)NC(=O)[C@H](CCN)NC(=O)[C@@H](NC(=O)[C@H](CN)NC(=O)[C@@H](NC(=O)[C@H](CCN)NC(=O)Cc2ccc(Cl)c(Cl)c2)[C@@H](C)O)CCNC(=O)[C@H]([C@@H](C)O)NC(=O)[C@H](CCN)NC(=O)[C@H](CCN)NC1=O [Compound 81] ({Phenylacetyl(3,4-Cl2)}-[Dab]T[Dap][Dab][Dab][dL][Abu][Dab][Dab]T; lactam 4-C)	2 (≈ 1.7 µM)	4 (≈ 3.41 µM)	1 (≈ 0.852 µM)	0.25 (≈ 0.213 µM)	<0.125	0.25 (≈ 0.213 µM)	0.5 (≈ 0.426 µM)	1 (≈ 0.852 µM)	0.25 (≈ 0.213 µM)
CCCCCCCC(=O)N[C@@H](CCN)C(=O)N[C@H](C(=O)N[C@@H](CN)C(=O)N[C@H]1CCNC(=O)[C@H]([C@@H](C)O)NC(=O)[C@H](CCN)NC(=O)[C@H](CCN)NC(=O)C(C)(C)NC(=O)[C@@H](CC(C)C)NC(=O)[C@H](CCN)NC1=O)[C@@H](C)O [Compound 45] (Octanoyl-[Dab]T[Dap][Dab][Dab][dL][Aib][Dab][Dab]T; lactam 4-C)	0.5 (≈ 0.449 µM)	1 (≈ 0.898 µM)	16 (≈ 14.4 µM)	0.5 (≈ 0.449 µM)	0.25 (≈ 0.225 µM)	0.5 (≈ 0.449 µM)	4 (≈ 3.59 µM)	8 (≈ 7.19 µM)	2 (≈ 1.8 µM)
CC(C)C[C@H]1NC(=O)[C@H](CCN)NC(=O)[C@@H](NC(=O)[C@H](CN)NC(=O)[C@@H](NC(=O)[C@H](CCN)NC(=O)c2ccc(C(F)(F)F)cc2)[C@@H](C)O)CCNC(=O)[C@H]([C@@H](C)O)NC(=O)[C@H](CCN)NC(=O)[C@H](CCN)NC(=O)[C@H]([C@@H](C)O)NC1=O [Compound 56] ({Benzoyl(4-CF3)}-[Dab]T[Dap][Dab][Dab][dL]T[Dab][Dab]T; lactam 4-C)	0.5 (≈ 0.425 µM)	2 (≈ 1.7 µM)	4 (≈ 3.4 µM)	<0.125	<0.125	0.25 (≈ 0.213 µM)	1 (≈ 0.851 µM)	2 (≈ 1.7 µM)	1 (≈ 0.851 µM)
CCCCCC(=O)N[C@@H](CCN)C(=O)N[C@H](C(=O)N[C@@H](CN)C(=O)N[C@H]1CCNC(=O)[C@H]([C@@H](C)O)NC(=O)[C@H](CCN)NC(=O)[C@H](CCN)NC(=O)[C@H](CC)NC(=O)[C@@H](CC(C)C)NC(=O)[C@H](CCN)NC1=O)[C@@H](C)O [Compound 68] (Hexanoyl-[Dab]T[Dap][Dab][Dab][dL][Abu][Dab][Dab]T; lactam 4-C)	0.5 (≈ 0.461 µM)	0.5 (≈ 0.461 µM)	2 (≈ 1.84 µM)	0.25 (≈ 0.23 µM)	<0.125	<0.125	1 (≈ 0.921 µM)	2 (≈ 1.84 µM)	1 (≈ 0.921 µM)

From patent publication USRE48335E1, “Polymyxin derivatives as antimicrobial compounds” (priority 2014, dated 2020)
